Experiment [1] has as its target T1, Recombinant ROCK1 (amino acids 1-477) (Homo sapiens, UniProt Q13464).
T1 construct: Recombinant ROCK1 (amino acids 1-477); by word order, ROCK1 from Carna Biosciences
Briefly: ROCK inhibition assay, LANCE Ultra TR-FRET kinase assay (ROCK1). Type of experiment: biochemical. To be noted: 1 μM ATP, 50 nM ULight-CREBtide substrate. An outline of the steps: (§1)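 Reaction buffer 50 mM HEPES pH 7.5, 10 mM MgCl2, 1 mM EGTA, 2 mM DTT; kinase, ULight-CREBtide (50 nM) and ATP (ROCK1 1 μM, ROCK2 4 μM) react 1 h at room temperature. Phospho-Ser133 detected by europium antibody after 10 mM EDTA stop, TR-FRET ex 320 nm; IC50 calculated.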
A general note: Time-resolved FRET reads energy transfer from a long-lived donor to a nearby acceptor.

Experiment [2] has as its target T2, Recombinant ROCK2 (amino acids 5-554) (Homo sapiens, UniProt O75116).
T2 construct: ROCK2 (amino acids 5-554); by word order, ROCK2 from SignalChem
Briefly: ROCK inhibition assay, LANCE Ultra TR-FRET kinase assay (ROCK2). To be noted: 4 μM ATP, 50 nM ULight-CREBtide substrate. Type of experiment: biochemical. An outline of the steps: as §1

Structures are written as SMILES.

T2 sequence (O75116 5-554): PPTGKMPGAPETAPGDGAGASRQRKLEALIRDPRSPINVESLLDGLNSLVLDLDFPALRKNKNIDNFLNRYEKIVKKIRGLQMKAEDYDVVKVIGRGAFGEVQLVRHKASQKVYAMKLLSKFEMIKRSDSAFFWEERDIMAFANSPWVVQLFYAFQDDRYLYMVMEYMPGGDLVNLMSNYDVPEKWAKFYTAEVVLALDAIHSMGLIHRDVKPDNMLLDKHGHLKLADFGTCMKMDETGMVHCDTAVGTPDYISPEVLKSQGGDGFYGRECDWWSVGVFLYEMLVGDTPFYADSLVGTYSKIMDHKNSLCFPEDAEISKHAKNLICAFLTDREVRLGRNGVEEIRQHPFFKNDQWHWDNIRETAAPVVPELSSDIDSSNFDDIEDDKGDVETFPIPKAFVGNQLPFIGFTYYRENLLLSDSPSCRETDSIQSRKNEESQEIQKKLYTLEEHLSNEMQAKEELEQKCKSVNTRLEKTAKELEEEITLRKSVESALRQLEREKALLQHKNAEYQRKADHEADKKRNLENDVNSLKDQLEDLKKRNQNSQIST
T1 sequence (Q13464 1-477): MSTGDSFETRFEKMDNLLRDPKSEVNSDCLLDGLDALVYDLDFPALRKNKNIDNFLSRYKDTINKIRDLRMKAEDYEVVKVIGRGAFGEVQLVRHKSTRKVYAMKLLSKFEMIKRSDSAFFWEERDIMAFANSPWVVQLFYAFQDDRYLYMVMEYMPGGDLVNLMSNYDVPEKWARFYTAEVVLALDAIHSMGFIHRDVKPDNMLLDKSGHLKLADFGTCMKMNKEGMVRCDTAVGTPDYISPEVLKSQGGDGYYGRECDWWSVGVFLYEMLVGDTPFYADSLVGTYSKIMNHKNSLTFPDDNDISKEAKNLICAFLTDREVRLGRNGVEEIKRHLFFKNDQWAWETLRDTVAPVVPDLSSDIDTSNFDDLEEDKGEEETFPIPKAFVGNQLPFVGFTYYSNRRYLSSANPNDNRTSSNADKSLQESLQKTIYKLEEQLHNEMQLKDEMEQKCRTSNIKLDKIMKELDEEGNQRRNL

The term IC50 denotes the concentration that gives 50% inhibition. For `O=C(N[C@H]1CC[C@@H](O)CC1)c1cccc(Cn2cnc3cc(-c4cn[nH]c4C(F)(F)F)ccc3c2=O)c1` [Compound 382], the IC50 was 11 to 100 nM in experiment [1] and below 10 nM in experiment [2].

Take `O=C(NCC1COC1)c1cccc(Cn2ccc3cc(-c4c[nH]nc4Cl)ccc3c2=O)c1` [Compound 63]: the IC50 was 11 to 100 nM in experiment [1] and below 10 nM in experiment [2].

In the case of `NCC(c1cccc(Cl)c1)n1cnc2cc(-c3ccnc(F)c3)ccc2c1=O` (stereo not shown) [Compound 492, 3-(2-amino-1-(3-chlorophenyl)ethyl)-7-(2-fluoropyridin-4-yl)quinazolin-4(3H)-one], the figures for the IC50 in experiment [1] and in experiment [2] were 11 to 100 nM and 10 to 100 nM, respectively.

`CC(C)NC(=O)c1cccc(Cn2cnc3cc(-c4cn[nH]c4C(F)(F)F)ccc3c2=O)c1` [Compound 369]: the IC50 in experiment [1] was 11 to 100 nM; in experiment [2], below 10 nM.

On to `[2H]C([2H])([2H])NC(=O)c1cccc(Cn2ccc3cc(-c4cn[nH]c4Cl)ccc3c2=O)c1` [Compound 291], for which the IC50 in experiment [1] is 11 to 100 nM; in experiment [2] it was below 10 nM.

Turning to `Nc1cc(-c2ccc3c(=O)n(Cc4cccc(C(=O)N[C@H]5CC[C@@H](O)CC5)c4)ccc3c2)ccn1` [Compound 192], the IC50 in experiment [1] was 11 to 100 nM; in experiment [2] it was 10 to 100 nM.

With `Cc1n[nH]cc1-c1ccc2c(=O)n(Cc3cccc(C(=O)Nc4cccc(OC(F)(F)F)c4)c3)ccc2c1` [Compound 35], the IC50 in experiment [1] is above 501 nM; in experiment [2], 100 to 500 nM.

On to `O=C(NCC1CCN(CC(F)(F)F)CC1)c1cccc(Cn2ccc3cc(N4CCOCC4)ccc3c2=O)c1` [Compound 220], for which the 50% inhibitory concentration (IC50) is 101 to 500 nM in experiment [1] and 10 to 100 nM in experiment [2].

With `C[C@H](c1cccc(C(=O)NC2COC2)c1)n1cnc2cc(-c3cn[nH]c3N)ccc2c1=O` [Compound 520], the IC50 in experiment [1] is 11 to 100 nM; in experiment [2] it was below 10 nM.

For the compound `CC(=O)Nc1cccc(Cn2ccc3cc(-c4cnoc4C)ccc3c2=O)c1` [Compound 334], the IC50 in experiment [1] was 101 to 500 nM; in experiment [2], 10 to 100 nM.

With `CC(O)c1cn(Cc2cccc(C(=O)NC3CCOCC3)c2)c(=O)c2ccc(-c3c[nH]nc3C(F)F)cc12` (stereo not shown) [Compound 536], the IC50 in experiment [1] and in experiment [2] was below 10 nM in each case.

For the compound `O=C(NC1CCOCC1)c1cc(F)cc(Cn2ccc3cc(N4CCOCC4)ccc3c2=O)c1` [Compound 211], the figures for the IC50 in experiment [1] and in experiment [2] were above 501 nM and 100 to 500 nM, respectively.

As for `O=C(N[C@H]1CC[C@H](O)CC1)c1cccc(Cn2cnc3cc(-c4cn[nH]c4C(F)(F)F)ccc3c2=O)c1` [Compound 383], the 50% inhibitory concentration (IC50) in experiment [1] is 11 to 100 nM; in experiment [2], below 10 nM.

For `O=C(N[C@H]1CC[C@@H](O)CC1)c1cccc(Cn2cnc3cc(-c4cn[nH]c4Cl)ccc3c2=O)c1` [Compound 407], the values for the half-inhibitory concentration (IC50) in experiment [1] and in experiment [2] were 11 to 100 nM and below 10 nM, respectively.

`Cc1nocc1-c1ccc2c(=O)n(Cc3cccc(C(=O)NCC4CCN(C)CC4)c3)ccc2c1` [Compound 78]: the results for the half-maximal inhibitory concentration (IC50) in experiment [1] and in experiment [2] were 11 to 100 nM and below 10 nM, respectively.

On to `O=c1c2ccc(-c3cn[nH]c3Cl)cc2ncn1C(CO)c1cccc(Cl)c1` (stereo not shown) [Compound 487], for which the IC50 in experiment [1] fell in the range of 11 to 100 nM; in experiment [2], 10 to 100 nM.

With `[2H]C([2H])([2H])NC(=O)c1cccc(Cn2cnc3cc(-c4cn[nH]c4C(F)(F)F)ccc3c2=O)c1` [Compound 368], the values for the half-maximal inhibitory concentration (IC50) in experiment [1] and in experiment [2] were 11 to 100 nM and below 10 nM, respectively.

Take `COCCNC(=O)c1cccc(Cn2ccc3cc(-c4ccnn4C)ccc3c2=O)c1` [Compound 120]: the concentration for half-maximal inhibition (IC50) in experiment [1] lay in the range of 101 to 500 nM; in experiment [2], 100 to 500 nM.

As for `[2H]C([2H])([2H])NC(=O)c1cccc([C@@H](C)n2cnc3cc(-c4ccnn4C)ccc3c2=O)c1` [Compound 477], the IC50 in experiment [1] was 11 to 100 nM; in experiment [2], below 10 nM.

In the case of `CS(=O)(=O)c1cccc(CNC(=O)c2cccc(Cn3cnc4cc(-c5cn[nH]c5C(F)F)ccc4c3=O)c2)c1` [Compound 398], the IC50 in experiment [1] was 101 to 500 nM; in experiment [2] it was 10 to 100 nM.

Take `CC(C)NC(=O)c1cc(F)cc(Cn2ccc3cc(-c4c[nH]nc4Br)ncc3c2=O)c1` [Compound 272]: the half-inhibitory concentration (IC50) in experiment [1] and in experiment [2] was below 10 nM in each case.

For the compound `Cc1nocc1-c1ccc2c(=O)n(Cc3cccc(C(=O)N[C@H]4C[C@@H](O)C4)c3)ccc2c1` [Compound 72], the IC50 in experiment [1] was 101 to 500 nM; in experiment [2] it was 10 to 100 nM.

Take `[2H]C([2H])([2H])NC(=O)c1cc(F)cc(Cn2ccc3cc(-c4cn[nH]c4C(F)(F)F)ccc3c2=O)c1` [Compound 282]: the IC50 in experiment [1] was 11 to 100 nM; in experiment [2], below 10 nM.

For `CNC(=O)c1cc(F)cc(Cn2cnc3cc(-c4cn[nH]c4C(F)(F)F)ccc3c2=O)c1` [Compound 386], the IC50 in experiment [1] was 11 to 100 nM; in experiment [2], below 10 nM.

On to `O=C(NCc1ccccc1)c1cccc(Cn2ccc3cc(-c4cn[nH]c4)ccc3c2=O)c1` [Compound 30], for which the 50% inhibitory concentration (IC50) in experiment [1] is above 501 nM; in experiment [2] it was 100 to 500 nM.

Turning to `O=C(NCC1CCOCC1)c1cccc(Cn2ccc3cc(-c4c[nH]nc4C(F)(F)F)ccc3c2=O)c1` [Compound 52], the half-inhibitory concentration (IC50) in experiment [1] is 11 to 100 nM; in experiment [2], below 10 nM.

For the compound `O=C(NC1COC1)c1cccc(Cn2ccc3cc(N4CCOCC4)ccc3c2=O)c1` [Compound 207], the IC50 in experiment [1] fell in the range of 11 to 100 nM; in experiment [2] it was 100 to 500 nM.

In the case of `CNC(=O)c1cccc(Cn2cnc3cc(-c4conc4C)ccc3c2=O)c1` [Compound 411], the IC50 in experiment [1] is 11 to 100 nM; in experiment [2] it was below 10 nM.

Turning to `Cc1nocc1-c1ccc2c(=O)n(Cc3cc(F)cc(C(=O)NCC4CCN(C)CC4)c3)ccc2c1` [Compound 149], the IC50 in experiment [1] was 11 to 100 nM; in experiment [2], below 10 nM.

Turning to `CNC(=O)c1cccc(Cn2cc(CC(C)O)c3cc(-c4cn[nH]c4Cl)ccc3c2=O)c1` (stereo not shown) [Compound 560], the half-inhibitory concentration (IC50) in experiment [1] and in experiment [2] was below 10 nM each time.

Consider `Cc1nocc1-c1ccc2c(=O)n([C@H](C)c3cccc(C(=O)NCC(F)(F)F)c3)cnc2c1` [Compound 475], for which the results for the IC50 in experiment [1] and in experiment [2] were 11 to 100 nM and below 10 nM, respectively.

`Cn1nccc1-c1ccc2c(=O)n(Cc3cccc(C(=O)N[C@H]4CC[C@@H](O)CC4)c3)ccc2c1` [Compound 116]: the half-inhibitory concentration (IC50) in experiment [1] was 101 to 500 nM; in experiment [2] it was 10 to 100 nM.

Consider `CNC(=O)c1cccc(C(C)n2ccc3cc(-c4ccnn4C)ccc3c2=O)c1` (stereo not shown) [Compound 322], for which the IC50 in experiment [1] was in the range of 101 to 500 nM; in experiment [2], 10 to 100 nM.

As to `Cn1nccc1-c1cc2ccn(Cc3cc(F)cc(C(=O)NCC4COC4)c3)c(=O)c2cn1` [Compound 269], the values for the IC50 in experiment [1] and in experiment [2] were 101 to 500 nM and 10 to 100 nM, respectively.

Regarding `CC(=O)Nc1cc(Cn2ccc3cc(-c4cnoc4C)ccc3c2=O)ccc1F` [Compound 335], the IC50 in experiment [1] lay in the range of 101 to 500 nM; in experiment [2] it was 10 to 100 nM.

Take `Cc1n[nH]cc1-c1cc2ccn(Cc3cc(F)cc(C(=O)NC4CCOCC4)c3)c(=O)c2cn1` [Compound 253]: the IC50 was 11 to 100 nM in experiment [1] and below 10 nM in experiment [2].

As to `O=C(Nc1ccon1)c1cccc(Cn2cnc3cc(-c4cn[nH]c4C(F)(F)F)ccc3c2=O)c1` [Compound 375], the IC50 in experiment [1] was in the range of 101 to 500 nM; in experiment [2] it was 10 to 100 nM.

Turning to `CS(=O)(=O)Nc1cccc(CNC(=O)c2cccc(Cn3cnc4cc(-c5cn[nH]c5C(F)F)ccc4c3=O)c2)c1` [Compound 399], the IC50 in experiment [1] fell in the range of 101 to 500 nM; in experiment [2], 10 to 100 nM.

The values above are taken from US12064426B2, “Selective inhibitors of ROCK1 and ROCK2 protein kinases and uses thereof” (GENOSCO Inc., priority 2021, dated 2024).
